The target of experiment [1] is T1, A. baumannii PBP1a (Acinetobacter baumannii, UniProt A0ABX6CK30).
T1 sequence (A0ABX6CK30 1-851): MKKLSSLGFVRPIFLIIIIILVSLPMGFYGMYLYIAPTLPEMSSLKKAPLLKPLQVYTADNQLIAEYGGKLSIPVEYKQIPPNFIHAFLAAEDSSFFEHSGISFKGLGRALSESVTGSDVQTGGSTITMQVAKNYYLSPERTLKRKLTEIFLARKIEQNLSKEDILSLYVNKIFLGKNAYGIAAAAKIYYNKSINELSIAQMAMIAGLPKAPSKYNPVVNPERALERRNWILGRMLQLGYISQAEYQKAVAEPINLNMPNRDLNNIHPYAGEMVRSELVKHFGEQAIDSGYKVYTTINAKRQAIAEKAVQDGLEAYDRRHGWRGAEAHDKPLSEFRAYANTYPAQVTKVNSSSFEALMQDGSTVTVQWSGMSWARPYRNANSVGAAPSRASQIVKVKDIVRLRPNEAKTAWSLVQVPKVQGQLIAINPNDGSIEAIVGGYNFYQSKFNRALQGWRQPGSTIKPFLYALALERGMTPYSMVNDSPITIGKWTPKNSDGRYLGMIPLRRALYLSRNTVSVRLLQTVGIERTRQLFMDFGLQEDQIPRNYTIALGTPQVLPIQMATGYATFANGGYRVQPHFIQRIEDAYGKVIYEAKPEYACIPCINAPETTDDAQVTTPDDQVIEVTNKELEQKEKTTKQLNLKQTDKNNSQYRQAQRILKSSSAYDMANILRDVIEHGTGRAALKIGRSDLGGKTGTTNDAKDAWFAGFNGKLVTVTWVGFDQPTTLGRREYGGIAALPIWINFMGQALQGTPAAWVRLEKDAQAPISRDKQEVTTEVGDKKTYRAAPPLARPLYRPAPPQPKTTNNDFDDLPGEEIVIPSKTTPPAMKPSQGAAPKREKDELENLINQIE
Kind of experiment: Bocillin-FL competition binding via gel filtration, A. baumannii PBP1a. As to conditions: competition binding assay using Bocillin-FL via gel filtration; read-out: A. baumannii PBP1a Potency. An outline of the steps:
(§1)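 Competitive equilibrium binding with Bocillin-FL reporter: PBP pre-incubated with inhibitor dilutions, Bocillin-FL added, 15 min incubation. Labelled enzyme isolated by size-exclusion spin plates, fluorescence measured; EC50 obtained by fitting bound fraction against inhibitor concentration with a Hill-coefficient model.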

Experiment [2] deals with A. baumannii PBP2 (Acinetobacter baumannii, UniProt D0C8Z9). Description: Bocillin-FL competition binding via gel filtration, A. baumannii PBP2. The procedure, abridged: as §1
For orientation: SEC sorts molecules by how far they enter the pores of the column.

Experiment [3] deals with P. aeruginosa ATCC 27853. Description: microbe, parasite or virus in culture. Format: cell-based. As to conditions: Pseudomonas aeruginosa, ATCC27853, read-out: Minimum inhibitory concentration, P. aeruginosa ATCC 27853.
Experiment [4] relates to A. baumannii ATCC 19606. Kind of experiment: microbe, parasite or virus in culture. Format: cell-based. As to conditions: Acinetobacter baumannii, ATCC19606, read-out: MIC, A. baumannii ATCC 19606.
Experiment [5] concerns P. aeruginosa ATCC 35151. Kind of experiment: microbe, parasite or virus in culture. Format: cell-based. The note with it: Pseudomonas aeruginosa, ATCC35151, read-out: Minimum inhibitory concentration, P. aeruginosa ATCC 35151.
In experiment [6] the test system is A. baumannii CDC-0033. Description: microbe, parasite or virus in culture. It is filed as cell-based. The note with it: Acinetobacter baumannii, CDC0033, read-out: MIC, A. baumannii CDC-0033.
The test system of experiment [7] is A. baumannii CDC-0036. Kind of experiment: microbe, parasite or virus in culture. Format: cell-based. The note with it: Acinetobacter baumannii, CDC0036, read-out: MIC, A. baumannii CDC-0036.
Experiment [8] has as its system A. baumannii CDC-0045. Kind of experiment: microbe, parasite or virus in culture. Format: cell-based. The note with it: Acinetobacter baumannii, CDC0045, read-out: MIC, A. baumannii CDC-0045.
The subject of experiment [9] is B. humptydooensis ATCC BAA-2767. Kind of experiment: microbe, parasite or virus in culture. It is filed as cell-based. The note with it: Burkholderia humptydooensis, ATCCBAA2767, read-out: Minimum inhibitory concentration (MIC), B. humptydooensis ATCC BAA-2767.

SMILES strings stand for the structures. ≈ marks a conversion by molar mass, not a printed value.

Among the data in patent US20240270762A1, “PENICILLIN-BINDING PROTEIN INHIBITORS” (priority 2021, published 2024) are EC50 and MIC values, retold here.

A. baumannii PBP2, sequence (D0C8Z9 whole entry): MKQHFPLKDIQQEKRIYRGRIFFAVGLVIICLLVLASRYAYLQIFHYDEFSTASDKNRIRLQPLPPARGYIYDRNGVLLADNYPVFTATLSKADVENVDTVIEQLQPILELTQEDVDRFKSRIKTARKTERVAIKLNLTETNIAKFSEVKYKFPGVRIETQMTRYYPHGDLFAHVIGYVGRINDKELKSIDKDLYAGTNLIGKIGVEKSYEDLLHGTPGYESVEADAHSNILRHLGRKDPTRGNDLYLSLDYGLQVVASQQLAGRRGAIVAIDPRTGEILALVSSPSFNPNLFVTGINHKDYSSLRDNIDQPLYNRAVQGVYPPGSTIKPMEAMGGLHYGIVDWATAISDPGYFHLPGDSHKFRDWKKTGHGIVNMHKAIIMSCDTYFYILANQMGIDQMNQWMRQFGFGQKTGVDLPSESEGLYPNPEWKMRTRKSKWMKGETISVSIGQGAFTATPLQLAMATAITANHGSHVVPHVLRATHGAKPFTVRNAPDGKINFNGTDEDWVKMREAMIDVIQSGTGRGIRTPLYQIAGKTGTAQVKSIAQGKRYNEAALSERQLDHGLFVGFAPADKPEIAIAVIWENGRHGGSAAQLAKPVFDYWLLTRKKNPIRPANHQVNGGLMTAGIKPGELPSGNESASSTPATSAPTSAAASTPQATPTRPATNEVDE

With `O=C(O)c1c(F)ccc2c1OB(O)[C@@H](NC(=O)[C@H](NC(=O)N1CCN(Cc3ccc(O)c(O)c3Cl)C(=O)C1=O)c1cccc(P(=O)(O)O)c1)C2` (single isomer, unassigned) [Example 163], the EC50 is under 10 µM in experiment [1] and 10 to 50 µM in [2]. For the same compound, the MIC in experiment [3], in experiment [4], in experiment [5], in [6], in experiment [7] and in experiment [8] was under 1 µg/mL each time. For the same compound, the MIC in experiment [9] was under 1 µg/mL.
Consider `O=C(NCCS(=O)(=O)N1CCN(C(=O)N[C@@H](C(=O)N[C@H]2Cc3ccc(F)c(C(=O)O)c3OB2O)c2ccc(P(=O)(O)O)cc2)C1=O)c1ccc(O)c(O)c1Cl` (single isomer, unassigned) [Example 168], for which the EC50 in experiment [1] is 50 to 250 µM; in experiment [2], under 10 µM. In addition, the MIC in [3] was 8 to 16 µg/mL (≈ 9.66 to 19.3 µM); in experiment [4] it was under 1 µg/mL; in [5], 2 to 4 µg/mL (≈ 2.42 to 4.83 µM); in experiment [6], 32 to 64 µg/mL (≈ 38.7 to 77.3 µM); in [7] it was 2 to 4 µg/mL (≈ 2.42 to 4.83 µM); in [8], 2 to 4 µg/mL (≈ 2.42 to 4.83 µM). Besides, the MIC in [9] was under 1 µg/mL.
Turning to `O=C(O)c1c(F)ccc2c1OB(O)[C@@H](NC(=O)[C@H](NC(=O)N1CCN(C3CCN(C(=O)Nc4ccc(O)cc4)CC3)C(=O)C1=O)c1cc(F)c(O)c(O)c1Cl)C2` (single isomer, unassigned) [Example 426], the EC50 in [1] and in [2] was 10 to 50 µM throughout. The MIC was 2 to 4 µg/mL (≈ 2.5 to 4.99 µM) in [3]; under 1 µg/mL in [4]; under 1 µg/mL in [5]; 2 to 4 µg/mL (≈ 2.5 to 4.99 µM) in [6]; 8 to 16 µg/mL (≈ 9.99 to 20 µM) in [7]; 2 to 4 µg/mL (≈ 2.5 to 4.99 µM) in experiment [8]. In addition, the MIC in experiment [9] is under 1 µg/mL.
For `O=C(O)c1c(F)ccc2c1OB(O)[C@@H](NC(=O)[C@H](NC(=O)N1CCN(C3CCN(C(=O)c4cccc(O)c4)CC3)C1=O)c1cc(F)c(O)c(O)c1Cl)C2` (single isomer, unassigned) [Example 430], the EC50 in experiment [1] and in [2] was under 10 µM throughout. Further, the MIC is under 1 µg/mL in [3]; under 1 µg/mL in experiment [4]; under 1 µg/mL in experiment [5]; 8 to 16 µg/mL (≈ 10.6 to 21.1 µM) in experiment [6]; 8 to 16 µg/mL (≈ 10.6 to 21.1 µM) in experiment [7]; 8 to 16 µg/mL (≈ 10.6 to 21.1 µM) in experiment [8]. Besides, the MIC in experiment [9] was under 1 µg/mL.
Turning to `O=C(O)c1c(F)ccc2c1OB(O)[C@@H](NC(=O)[C@H](NC(=O)N1CCN(C3CCN(C(=O)c4cccc(O)c4F)CC3)C1=O)c1cc(F)c(O)c(O)c1Cl)C2` (single isomer, unassigned) [Example 431], the EC50 in [1] and in experiment [2] was under 10 µM in each case. Besides, the MIC in experiment [3], in [4], in experiment [5], in experiment [6], in [7] and in [8] was under 1 µg/mL each time. In [9], the MIC is under 1 µg/mL.
As for `O=C(O)c1c(F)ccc2c1OB(O)[C@@H](NC(=O)[C@H](NC(=O)N1CCN(C3CCN(C(=O)c4cccc(O)c4Cl)CC3)C1=O)c1cc(F)c(O)c(O)c1Cl)C2` (single isomer, unassigned) [Example 432], the EC50 in [1] and in [2] was under 10 µM each time. The MIC in experiment [3] was under 1 µg/mL; in experiment [4], under 1 µg/mL; in experiment [5], under 1 µg/mL; in experiment [6], 2 to 4 µg/mL (≈ 2.52 to 5.05 µM); in experiment [7] it was 2 to 4 µg/mL (≈ 2.52 to 5.05 µM); in experiment [8], under 1 µg/mL. Moreover, the MIC in experiment [9] is under 1 µg/mL.
`O=C(O)c1c(F)ccc2c1OB(O)[C@@H](NC(=O)[C@H](NC(=O)N1CCN(C3CCN(C(=O)c4cc(O)ccc4F)CC3)C1=O)c1cc(F)c(O)c(O)c1Cl)C2` (single isomer, unassigned) [Example 433]: the EC50 in experiment [1] and in [2] was under 10 µM in each case. For the same compound, the MIC in experiment [3], in [4], in [5], in experiment [6], in experiment [7] and in experiment [8] was under 1 µg/mL in each case. The MIC in experiment [9] was under 1 µg/mL.
Take `O=C(O)c1c(F)ccc2c1OB(O)[C@@H](NC(=O)[C@H](NC(=O)N1CCN(C3CCN(C(=O)c4cc(O)ccc4Cl)CC3)C1=O)c1cc(F)c(O)c(O)c1Cl)C2` (single isomer, unassigned) [Example 434]: the EC50 in [1] and in experiment [2] was under 10 µM throughout. Further, the MIC in experiment [3], in [4], in experiment [5], in [6], in experiment [7] and in [8] was under 1 µg/mL in each case. Moreover, in [9], the MIC is under 1 µg/mL.
With `O=C(O)c1c(F)ccc2c1OB(O)[C@@H](NC(=O)[C@H](NC(=O)N1CCN(C3CCN(C(=O)c4ccc(F)c(O)c4)CC3)C1=O)c1cc(F)c(O)c(O)c1Cl)C2` (single isomer, unassigned) [Example 435], the EC50 in experiment [1] and in experiment [2] was under 10 µM throughout. Moreover, the MIC in [3], in experiment [4], in experiment [5], in experiment [6], in experiment [7] and in [8] was under 1 µg/mL in each case. Besides, the MIC in [9] is under 1 µg/mL.
For the compound `O=C(O)c1c(F)ccc2c1OB(O)[C@@H](NC(=O)[C@H](NC(=O)N1CCN(C3CCN(C(=O)c4cc(O)cc(F)c4)CC3)C1=O)c1cc(F)c(O)c(O)c1Cl)C2` (single isomer, unassigned) [Example 436], the EC50 in experiment [1] and in experiment [2] was under 10 µM throughout. The MIC in experiment [3], in experiment [4], in [5], in [6], in experiment [7] and in experiment [8] was under 1 µg/mL throughout. Moreover, the MIC in experiment [9] is under 1 µg/mL.
Turning to `O=C(O)c1c(F)ccc2c1OB(O)[C@@H](NC(=O)[C@H](NC(=O)N1CCN(C3CCN(C(=O)c4ccc(F)c(O)c4F)CC3)C1=O)c1cc(F)c(O)c(O)c1Cl)C2` (single isomer, unassigned) [Example 437], the EC50 in experiment [1] and in [2] was under 10 µM in each case. In addition, the MIC in experiment [3], in [4], in [5], in experiment [6], in [7] and in experiment [8] was under 1 µg/mL throughout. The MIC in experiment [9] is under 1 µg/mL.
`O=C(O)c1c(F)ccc2c1OB(O)[C@@H](NC(=O)[C@H](NC(=O)N1CCN(C3CCN(C(=O)c4c(F)ccc(O)c4F)CC3)C1=O)c1cc(F)c(O)c(O)c1Cl)C2` (single isomer, unassigned) [Example 439]: the EC50 was 10 to 50 µM in [1] and under 10 µM in experiment [2]. Further, the MIC in experiment [3], in experiment [4], in [5], in experiment [6], in experiment [7] and in experiment [8] was under 1 µg/mL throughout. Moreover, the MIC in experiment [9] is under 1 µg/mL.
In the case of `O=C(O)c1c(F)ccc2c1OB(O)[C@@H](NC(=O)[C@H](NC(=O)N1CCN(C3CCN(C(=O)c4c(F)ccc(O)c4Cl)CC3)C1=O)c1cc(F)c(O)c(O)c1Cl)C2` (single isomer, unassigned) [Example 440], the EC50 in experiment [1] and in experiment [2] was under 10 µM in each case. Also, the MIC in [3], in experiment [4], in [5], in experiment [6], in experiment [7] and in [8] was under 1 µg/mL in each case. In addition, the MIC in [9] is under 1 µg/mL.
